Test results taken from PMC6270530, “Structural Characterization of de Novo Designed L5K5W Model Peptide Isomers with Potent Antimicrobial and Varied Hemolytic Activities” (Molecules, 2013).
No end group written: not given here.

What was measured:
[1] = system: Shigella dysentariae ATCC 9752; assay type: cell-based; settings: broth microdilution, 1–128 μg/mL two-fold dilutions; triplicate, value reproduced twice or three times
Experimental: (§1) The antimicrobial activity of each peptide was determined against four strains of Gram-positive bacteria (Bacillus subtilis ATCC 6633, Staphylococcus aureus ATCC 6538p, Staphylococcus epidermis ATCC 12228, and Micrococcus luteus ATCC 10240) and five strains of Gram-negative bacteria (Escherichia coli ATCC 25922, Shigella dysentariae ATCC 9752, Salmonella typhomurium ATCC 14028, Klebsiella pneumoniae ATCC 10031, and Pseudomonas aeruginosa ATCC 27853). In addition, a methicillin-resistant Staphylococcus aureus strain, MRSA-TK784 [21, 42], was employed as a multi-drug resistant bacterium. Antimicrobial susceptibility was measured as the minimal inhibitory concentration (MIC), which was determined by the standard broth microdilution method, as described previously. […] The tests were performed in triplicate, and the MIC values that were reproduced twice or three times in the three independent measurements were recorded.

[2] = system: 4 Gram-positive strains tested; assay type: cell-based, Gram-positive bacteria; settings: against 4 Gram-positive strains tested
Experimental: (§2) Table 1 summarizes the MIC values of our model peptide isomers against various bacterial species, including four Gram-positive, five Gram-negative and a multi-drug resistant strain. […] In addition, all of the peptides were fairly active (MICs ≤ 16 μg/mL) against the MRSA-TK784 strain, which is not susceptible to β-lactam antibiotics and protein synthesis inhibitors and moderately resistant to vancomycin [21, 42].
as §1

[3] = system: 5 Gram-negative strains tested; assay type: cell-based, Gram-negative bacteria; settings: against 5 Gram-negative strains tested
Experimental: as §2, §1

[4] = system: all of the 9 strains tested; assay type: cell-based, Gram-positive and Gram-negative bacteria; settings: against all of the 9 strains tested
Experimental: as §2, §1

MRSA-TK784 = assay type: cell-based, methicillin-resistant Staphylococcus aureus; settings: Methicillin-Resistant S. aureus; broth microdilution, 1–128 μg/mL two-fold dilutions; triplicate
Experimental: as §1

human red blood cells = assay type: cell-based
Experimental: The hemolytic assay was performed as described previously. In brief, suspensions of human red blood cells (10% v/v in PBS) were treated for 1 h with various concentrations (1–128 μg/mL, two-fold serial dilutions) of the peptides. The absorbance of the supernatant was then measured at 550 nm. The relative value to 100% hemolysis of human red blood cells treated with 0.2% Triton X-100 was defined as the percentage of hemolysis. The tests were performed using triplicate samples, and the average values of the three independent measurements were recorded. The minimal hemolytic concentration (MHC) value was determined as the lowest peptide concentration that produces more than 5% hemolysis.

Substance	Minimal inhibitory concentration, S. dysentariae [1]	GM (geometric mean of MICs), Gram (+) [2]	GM (geometric mean of MICs), Gram (−) [3]	GM (geometric mean of MICs), Gram (+,−) [4]	Minimal inhibitory concentration, MRSA-TK784 (MRSA-TK784)	hemolytic activity (in words) (human red blood cells)
LLKWLKKLLKK-NH2 [W4]	2 µg/mL	2.4 µg/mL	3.5 µg/mL	2.9 µg/mL	–	–
LLKKLLKWLKK-NH2 [W8]	4 µg/mL	3.4 µg/mL	4.6 µg/mL	4.0 µg/mL	–	–
LKKLLKKLLKW-NH2 [W11]	2 µg/mL	2.4 µg/mL	3.5 µg/mL	2.9 µg/mL	16 µg/mL	–
KKLLKKLLKWL-NH2 [W10]	1 µg/mL	1.2 µg/mL	1.7 µg/mL	1.5 µg/mL	–	–
WLKKLLKKLLK-NH2 [W1]	2 µg/mL	2.4 µg/mL	3.0 µg/mL	2.7 µg/mL	8 µg/mL	–
LKKLLKWLKKL-NH2 [W7]	2 µg/mL	2.4 µg/mL	3.0 µg/mL	2.7 µg/mL	–	–
KWLKKLLKKLL-NH2 [W2]	1 µg/mL	2.4 µg/mL	2.3 µg/mL	2.3 µg/mL	–	–
LKWLKKLLKKL-NH2 [W3]	2 µg/mL	–	3.5 µg/mL	3.2 µg/mL	–	–
KKLLKWLKKLL-NH2 [W6]	2 µg/mL	–	3.5 µg/mL	3.2 µg/mL	–	somewhat hemolytic
KLLKKLLKWLK-NH2 [W9]	2 µg/mL	2.4 µg/mL	2.3 µg/mL	2.3 µg/mL	–	–
KLLKWLKKLLK-NH2 [W5]	2 µg/mL	2.0 µg/mL	2.6 µg/mL	2.3 µg/mL	–	–
